Reference: patent publication US20230159511A1, “TETRAHYDROISOQUINOLINE COMPOUNDS AS NRF2 ACTIVATORS” (C4X Discovery Limited, priority 2020, published 2023)
Where two headings read alike, the source gives them in different places.

What was measured:
[1] = tested on: NRF2 mediated gene NAD(P)H:quinone acceptor oxidoreductase 1 (NQO1) in BEAS-2B cells; assay: Beas2B NQO1 mRNA Cell Based Assay; design: species or system human; details: Homo sapiens
Experimental: Beas2B NQO1 mRNA Cell Based Assay
The up regulation of the NRF2 mediated gene NAD(P)H:quinone acceptor oxidoreductase 1 (NQO1) was measured using the following assay method: BEAS-2B cells (ATCC CRL-9609) were plated in 96-well clear plates at 20,000 cells/well in 75 μL of cell culture media and incubated overnight (37° C., 5% CO2). On day 2, 25 μL of compound or controls were added to the cells for 24 h. On day 3, the medium was aspirated from the plate and the Cells-to-CT™ 1-Step TaqMan® Kit (Ambion A25603) was used to perform expression analysis directly from cultured cells without RNA purification according to the manufacturer's instructions.
Briefly, cells were washed with ice cold PBS and 22.5 μL of room-temperature DNase/Lysis solution was added to the cells and incubated at room temperature for 5 minutes. To stop the reaction, 2.25 μL of stop solution was added to the cell lysate. The samples were diluted 1:5 using nuclease free water and 2.5 μL transferred into the PCR plate. Real-time PCR was performed using the C-1000 Thermal Cycler (Bio-Rad) using human beta actin as the internal control. The cDNA was amplified with a specific primer for NQO1 using the 1-step RT-PCR master mix (Ambion Cells-to-CTTM 1-Step TaqMan® Kit A25603). The primers/probes sets that were used for amplification of cDNA were obtained from TaqMan Gene Expression Assays (Applied Biosystems). The comparative CT (ΔΔCT) relative quantification method was used to calculate the relative mRNA level of the target gene NQO1 as described in the Applied Biosystems Chemistry Guide. The data are expressed as an increase in target gene mRNA compared to vehicle (0.1% DMSO) control and the EC50 values were determined by fitting the data to a four parameter logistic fit using XLfit or XE Runner within ActivityBase.

[2] = target: T1, human KEAP1 (N-term, residues 321-609) (Homo sapiens, UniProt Q14145); assay: KEAP1 Kelch Fluorescence Polarization (FP) Assay; format: binding; details: inhibition of Kelch domain-NRF2 interaction; 2 nM FITC-labelled NRF2 peptide, 25 nM KEAP1, 1 h room temperature; compounds below 10 nM cannot be differentiated
T1 construct: human KEAP1 (N-term, residues 321-609)
T1 sequence (Q14145 321-609): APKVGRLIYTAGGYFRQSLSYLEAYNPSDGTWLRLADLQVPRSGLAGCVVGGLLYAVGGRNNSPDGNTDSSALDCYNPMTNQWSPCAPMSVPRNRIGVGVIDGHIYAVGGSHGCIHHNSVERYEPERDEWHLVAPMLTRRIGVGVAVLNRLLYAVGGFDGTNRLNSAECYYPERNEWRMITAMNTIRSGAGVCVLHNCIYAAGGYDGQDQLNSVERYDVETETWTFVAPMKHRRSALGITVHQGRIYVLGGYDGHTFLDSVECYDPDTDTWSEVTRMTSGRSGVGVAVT
Method in brief: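 Compounds in 12-point curves (top 10 μM) displaced 2 nM FITC-labelled NRF2 peptide from 25 nM KEAP1 residues 321-609 over 1 h at room temperature. Polarization read at 470/530 nm, window set by 50 μM unlabelled peptide; four-parameter fit gave IC50, floor 10 nM.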

[3] = BEAS-2B cells, compound for 24 h, increase in NQO1 mRNA compared to vehicle (0.1% DMSO) control, read-out: EC50

Structure (SMILES)	IC50 [2] [nM]	EC50 [1, 3] [nM]	EC50 ([1]; BEAS-2B, 24 h) [nM]
CNC(=O)[C@@]1(C)CCCC[C@H]1C(=O)N1CCc2c(Cl)ccc(OCc3cn(C)nn3)c2[C@H]1CN1CC2(CC2)CC1=O [Example 102, (1S,2R)-2-((S)-5-chloro-8-((1-methyl-1H-1,2,3-triazol-4-yl)methoxy)-1-((6-oxo-5-azaspiro[2.4]heptan-5-yl)methyl)-1,2,3,4-tetrahydroisoquinoline-2-carbonyl)-N,1-dimethylcyclohexane-1-carboxamide]	12	59	–
O=C(NCC(F)(F)CO)[C@H]1CCCC[C@H]1C(=O)N1CCc2cccc(O[C@H]3CCN(C(=O)c4cncs4)C3)c2[C@H]1CN1C(=O)c2ccccc2C1=O [Example 34, (1S,2R)-N-(2,2-difluoro-3-hydroxypropyl)-2-((S)-1-((1,3-dioxoisoindolin-2-yl)methyl)-8-(((S)-1-(thiazole-5-carbonyl)pyrrolidin-3-yl)oxy)-1,2,3,4-tetrahydroisoquinoline-2-carbonyl)cyclohexane-1-carboxamide]	36	193	–
Cn1nnc(COc2ccc(Cl)c3c2[C@@H](CN2CCCC2=O)N(C(=O)[C@@H]2CCCCN2C(=O)C(F)F)CC3)c1C(F)F [Example 84]	161	–	1530
C[C@]1(C(N)=O)CCCC[C@H]1C(=O)N1CCc2c(Cl)cc(F)c(OCc3nnn4c3CCCC4)c2[C@H]1CN1CC2(CC2)CC1=O [Example 111, (1S,2R)-2-((S)-5-chloro-7-fluoro-1-((6-oxo-5-azaspiro[2.4]heptan-5-yl)methyl)-8-((4,5,6,7-tetrahydro-[1,2,3]triazolo[1,5-a]pyridin-3-yl)methoxy)-1,2,3,4-tetrahydroisoquinoline-2-carbonyl)-1-methylcyclohexane-1-carboxamide]	7.2	30	–
CNC(=O)N1CCOC[C@H]1C(=O)N1CCc2c(Cl)ccc(OCc3nnn(C)c3C(F)F)c2[C@H]1CN1CCCC1=O [Example 87, (S)-3-((S)-5-chloro-8-((5-(difluoromethyl)-1-methyl-1H-1,2,3-triazol-4-yl)methoxy)-1-((2-oxopyrrolidin-1-yl)methyl)-1,2,3,4-tetrahydroisoquinoline-2-carbonyl)-N-methylmorpholine-4-carboxamide]	39	4130	–
CNC(=O)N1CC2(CC2)C[C@H]1C(=O)N1CCc2c(Cl)ccc(OCc3nnn(C)c3C(F)F)c2[C@H]1CN1CCCC1=O [Example 88, (S)-6-((S)-5-chloro-8-((5-(difluoromethyl)-1-methyl-1 H-1,2,3-triazol-4-yl)methoxy)-1-((2-oxopyrrolidin-1-yl)methyl)-1,2,3,4-tetrahydroisoquinoline-2-carbonyl)-N-methyl-5-azaspiro[2.41]heptane-5-carboxamide]	67	–	7560
CNC(=O)[C@H]1CCCC[C@H]1C(=O)N1CCc2c(Cl)ccc(OCc3cnc4c(c3)ncn4C)c2[C@H]1CN1CCCC1=O [Example 68, (1S,2R)-2-((S)-5-chloro-8-((3-methyl-3H-imidazo[4,5-b]pyridin-6-yl)methoxy)-1-((2-oxopyrrolidin-1-yl)methyl)-1,2,3,4-tetrahydroisoquinoline-2-carbonyl)-N-methylcyclohexane-1-carboxamide]	13	145	–
CNC(=O)[C@@]1(C)CCCC[C@H]1C(=O)N1CCc2c(Cl)ccc(OCc3cn(C)nn3)c2[C@H]1CN1C[C@H](C)CC1=O [Example 104, (1S,2R)-2-((S)-5-chloro-8-((1-methyl-1H-1,2,3-triazol-4-yl)methoxy)-1-(((R)-4-methyl-2-oxopyrrolidin-1-yl)methyl)-1,2,3,4-tetrahydroisoquinoline-2-carbonyl)-N,1-dimethylcyclohexane-1-carboxamide]	11	784	–
CNC(=O)[C@H]1CCCC[C@H]1C(=O)N1CCc2c(Cl)ccc(OCc3noc4ncccc34)c2[C@H]1CN1CCCC1=O [Example 70, (1S,2R)-2-((S)-5-chloro-8-(isoxazolo[5,4-b]pyridin-3-ylmethoxy)-1-((2-oxopyrrolidin-1-yl)methyl)-1,2,3,4-tetrahydroisoquinoline-2-carbonyl)-N-methylcyclohexane-1-carboxamide]	29	295	–
CCNC(=O)[C@H]1CCCC[C@H]1C(=O)N1CCc2cccc(O[C@H]3CCN(C(=O)c4cncs4)C3)c2[C@H]1CN1C(=O)c2ccccc2C1=O [Example 42, (1S,2R)-2-((S)-1-((1,3-dioxoisoindolin-2-yl)methyl)-8-(((S)-1-(thiazole-5-carbonyl)pyrrolidin-3-yl)oxy)-1,2,3,4-tetrahydroisoquinoline-2-carbonyl)-N-ethylcyclohexane-1-carboxamide]	53	580	–
CNC(=O)[C@@]1(C)CCCC[C@H]1C(=O)N1CCc2c(Cl)cc(F)c(OCc3nnn(C)c3C(F)F)c2[C@H]1CN1CCOCC1=O [Example 108, (1S,2R)-2-((S)-5-chloro-8-((5-(difluoromethyl)-1-methyl-1H-1,2,3-triazol-4-yl)methoxy)-7-fluoro-1-((3-oxomorpholino)methyl)-1,2,3,4-tetrahydroisoquinoline-2-carbonyl)-N,1-dimethylcyclohexane-1-carboxamide]	7.3	654	–

The next lines start with results.

IC50 [2] [nM]	Structure (SMILES)	EC50 [1, 3] [nM]	EC50 ([1]; BEAS-2B, 24 h) [nM]
6.2	Cn1nnc(COc2c(F)cc(Cl)c3c2[C@@H](CN2CC4(CC4)CC2=O)N(C(=O)[C@@H]2CCCC[C@]2(C)C(N)=O)CC3)c1C(F)F [Example 107, (1S,2R)-2-((S)-5-chloro-8-((5-(difluoromethyl)-1-methyl-1H-1,2,3-triazol-4-yl)methoxy)-7-fluoro-1-((6-oxo-5-azaspiro[2.4]heptan-5-yl)methyl)-1,2,3,4-tetrahydroisoquinoline-2-carbonyl)-1-methylcyclohexane-1-carboxamide]	37	–
14	CNC(=O)N1CCCC[C@H]1C(=O)N1CCc2c(Cl)ccc(OCc3nnn(C)c3C(F)F)c2[C@H]1CN1CCCC1=O [Example 79, (S)-2-((S)-5-chloro-8-((5-(difluoromethyl)-1-methyl-1H-1,2,3-triazol-4-yl)methoxy)-1-((2-oxopyrrolidin-1-yl)methyl)-1,2,3,4-tetrahydroisoquinoline-2-carbonyl)-N-methylpiperidine-1-carboxamide]	336	–
16	CNC(=O)[C@H]1CCCC[C@H]1C(=O)N1CCc2c(Cl)ccc(OCc3cn(C)nn3)c2[C@H]1CN1CCCC1=O [Example 74, (1S,2R)-2-((S)-5-chloro-8-((1-methyl-1H-1,2,3-triazol-4-yl)methoxy)-1-((2-oxopyrrolidin-1-yl)methyl)-1,2,3,4-tetrahydroisoquinoline-2-carbonyl)-N-methylcyclohexane-1-carboxamide]	334	–
11	CNC(=O)[C@H]1CCCC[C@H]1C(=O)N1CCc2c(Cl)ccc(OCc3nnn(C)c3C(F)F)c2[C@H]1CN1CCCC1=O [Example 58, (1S,2R)-2-((S)-5-chloro-8-((5-(difluoromethyl)-1-methyl-1H-1,2,3-triazol-4-yl)methoxy)-1-((2-oxopyrrolidin-1-yl)methyl)-1,2,3,4-tetrahydroisoquinoline-2-carbonyl)-N-methylcyclohexane-1-carboxamide]	206	–
7.9	CNC(=O)[C@@]1(C)CCCC[C@H]1C(=O)N1CCc2c(Cl)ccc(OCc3nnn(C)c3C)c2[C@H]1CN1CCCC1=O [Example 90, (1S,2R)-2-((S)-5-chloro-8-((1,5-dimethyl-1H-1,2,3-triazol-4-yl)methoxy)-1-((2-oxopyrrolidin-1-yl)methyl)-1,2,3,4-tetrahydroisoquinoline-2-carbonyl)-N,1-dimethylcyclohexane-1-carboxamide]	94	–
6.7	CNC(=O)[C@@]1(C)CCCC[C@H]1C(=O)N1CCc2c(Cl)cc(F)c(OCc3nnn(C)c3C(F)F)c2[C@H]1CN1CC2(CC2)CC1=O [Example 106, (1S,2R)-2-((S)-5-chloro-8-((5-(difluoromethyl)-1-methyl-1H-1,2,3-triazol-4-yl)methoxy)-7-fluoro-1-((6-oxo-5-azaspiro[2.4]heptan-5-yl)methyl)-1,2,3,4-tetrahydroisoquinoline-2-carbonyl)-N,1-dimethylcyclohexane-1-carboxamide]	25	–
37	CNC(=O)[C@@]1(C)CCCC[C@H]1C(=O)N1CCc2c(Cl)ccc(OCc3nnn(C)c3C(F)F)c2[C@H]1CN1CCC(C)C1=O (single isomer, unassigned) [Example 96]	3190	–
